The values below come from ChEMBL document CHEMBL5500335, “Ligand-based design and synthesis of new trityl histamine and trityl cysteamine derivatives as SIRT2 inhibitors for cancer therapy” (Eur J Med Chem, 2024).

Series [1] addresses T1, NAD-dependent protein deacetylase sirtuin-2 (Homo sapiens, UniProt Q8IXJ6).
T1 sequence (Q8IXJ6 whole entry): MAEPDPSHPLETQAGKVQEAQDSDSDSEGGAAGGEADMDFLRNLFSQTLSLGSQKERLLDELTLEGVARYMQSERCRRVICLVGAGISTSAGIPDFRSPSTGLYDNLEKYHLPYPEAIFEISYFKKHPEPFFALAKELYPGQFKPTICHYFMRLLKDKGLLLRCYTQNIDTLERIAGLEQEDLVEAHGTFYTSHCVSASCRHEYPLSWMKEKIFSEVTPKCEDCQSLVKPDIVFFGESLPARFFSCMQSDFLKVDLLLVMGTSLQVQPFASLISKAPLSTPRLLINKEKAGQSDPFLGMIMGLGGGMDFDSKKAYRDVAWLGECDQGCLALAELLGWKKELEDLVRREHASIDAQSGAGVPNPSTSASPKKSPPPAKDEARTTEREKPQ
Description: Inhibition of recombinant SIRT2 (unknown origin) deacetylase activity using Ac-RHKK(Ac)-MCA as substrate incubated for 60 mins in presence of NAD by fluorogenic assay.

The test system of series [2] is Panel NCI-60 (60 carcinoma cell lines). Description: Antiproliferative activity against human Panel NCI-60 (60 carcinoma cell lines) cells assessed as inhibition of cell growth incubated for 48 hrs by SRB assay. The class given is functional.
The test system is the same in series [3]. Description: Growth inhibition of human Panel NCI-60 (60 carcinoma cell lines) cells incubated for 48 hrs by SRB assay. Type of series: functional. A general note: The SRB assay estimates cell density from bound dye.
Series [4] shares this test system. Description: Antiproliferative activity against human Panel NCI-60 (60 carcinoma cell lines) cells assessed as decrease in cell count incubated for 48 hrs by SRB assay. Type of series: functional.
The test system of series [5] is MCF7. Put plainly: Cell cycle arrest in human MCF7 cells assessed as G0-G1 phase cells incubated for 24 hrs by flow cytometric analysis (reference value: 55.8 %). The class given is functional.
Series [6] can be described thus: Cytotoxicity against human PBMC cells assessed as cell viability at 1 uM incubated for 2 days by MTT assay relative to control. Type of series: toxicity, cell-based. As to conditions: time 2 day, read-out: Activity. A general note: Tetrazolium dyes change colour on reduction, which living cells bring about.
Series [7] deals with MCF7. Description: Cell cycle arrest in human MCF7 cells assessed as accumulation of G2/M phase cells incubated for 24 hrs by flow cytometric analysis (reference value: 18 %). Type of series: functional. In general terms: Flow cytometry measures light scatter and fluorescence of single cells or particles in a stream.
A short description of series [8]: Selectivity ratio of IC50 for antiproliferative activity against human MOLT-4 cells to IC50 for cytotoxicity against human PBMC cells. The conditions noted are these: MOLT-4 cells and PBMC cells, read-out: Ratio IC50. Type of series: toxicity, cell-based.
A short description of series [9]: Selectivity ratio of IC50 for antiproliferative activity against spontaneous remission leukemia cell line (unknown origin) to IC50 for cytotoxicity against human PBMC cells. Type of series: toxicity, cell-based. The conditions noted are these: read-out: Ratio IC50.
The subject of series [10] is MCF7. Description: Cell cycle arrest in human MCF7 cells assessed as accumulation of S phase cells incubated for 24 hrs by flow cytometric analysis (reference value: 26.6 %). The class given is functional.
In series [11] the target is T2, NAD-dependent protein deacetylase sirtuin-2 (Homo sapiens) (UniProt Q8IXJ6).
T2 sequence (whole entry): T1 sequence (Q8IXJ6 whole entry)
Put plainly: Inhibition of SIRT2 in human MCF7 cells assessed as induction of eIF5A acetylation incubated for 24 hrs by immunoblotting analysis. The conditions noted are these: dose 2-10 µM. Type of series: cell-based.

Series [12] can be described thus: Cytotoxicity against human PBMC cells assessed as cell viability at 10 uM incubated for 2 days by MTT assay relative to control. The class given is toxicity, cell-based. The conditions noted are these: time 2 day, read-out: Activity.
Series [13] is described as follows: Cytotoxicity against human PBMC cells assessed as cell viability incubated for 2 days by MTT assay. Type of series: toxicity, cell-based.
The subject of the next series is DNA. Put plainly: Induction of DNA (unknown origin) cleavage. The class given is nucleic-acid assay.

The source made the active and inactive calls. No cut-off for these calls is given here.

Turning to `COc1ccc(C2(SCCNCc3cc(N(C)C)ccn3)c3ccccc3CCc3ccccc32)cc1`, the IC50 – broadly, the concentration needed to halve the response being measured – in series [1] was determined as 8630 nM. Further, in series [2], the TGI (usually the concentration giving total growth inhibition) was 440 nM. For the same compound, it took 190 nM to inhibit growth in series [3] by half (GI50).
Consider `CCN(CC)c1ccnc(CNCCSC(c2ccccc2)(c2ccccc2)c2ccc(OC)cc2)c1`, for which, in series [1], the IC50 amounted to 14200 nM. In series [4], the LC50 (50% net cell kill) is no less than 5590 nM. In addition, the TGI in series [2] came to 3060 nM. In addition, halving of growth in series [3] (GI50) required 1300 nM.
The matching figures for `CN(C)c1ccnc(CNCCSC2(c3ccccc3)c3ccccc3C=Cc3ccccc32)c1`: 12000 nM, no less than 2170 nM, no less than 500 nM and 220 nM.
In the case of `CCN(CC)c1ccnc(CNC(Cc2cn(C(c3ccccc3)(c3ccccc3)c3ccccc3)cn2)C(=O)OC)c1` (centres undefined), the IC50 in [1] is 7610 nM.
In the case of `CN(C)c1ccnc(CNCCSC2(c3ccc(C(F)(F)F)cc3)c3ccccc3CCc3ccccc32)c1`, the IC50 in series [1] came to 49600 nM. Further, the LC50 (50% net cell kill) in series [4] is no less than 4770 nM. Also, in series [2], the TGI worked out at 370 nM. The GI50 (usually the concentration at which growth is held to half of that of the control) in [3] was found to be 180 nM.
The matching figures for `COc1ccc(C(SCCNCc2cc(N(C)C)ccn2)(c2ccccc2)c2ccccc2)cc1`: 12400 nM, no less than 1820 nM, no less than 480 nM and 210 nM.
Regarding `CN(C)c1ccnc(CNCCSC2(c3ccccc3)c3ccccc3CCc3ccccc32)c1`, the 50% inhibitory concentration (IC50) in [1] is 10600 nM. In addition, the TGI in series [2] is no less than 2930 nM. Further, halving of growth in series [3] (GI50) required 1510 nM.
In the same order, the values of `CN(C)c1ccnc(CNCCc2cn(C(c3ccccc3)(c3ccccc3)c3ccccc3)cn2)c1` are 8620 nM, 1190 nM and 260 nM.
Consider `COc1ccc(C2(SCCNCc3cc(N(C)C)ccn3)c3ccccc3C=Cc3ccccc32)cc1`, for which the Activity is listed as 26.7% with MCF7 [5], 46.5% in the series on MCF7 [7] and 29.4% in the series with MCF7 [10]. The viability at 48 h, 1 µM in series [6] came out at 84.9%. Also, the IC50 in series [1] is 5630 nM. Moreover, the figures for the selectivity ratio in series [8] and in [9] were 2.2 and 25, respectively. The LC50 (50% net cell kill) in series [4] was no less than 720 nM. Further, the inhibition result in series [11] was “Dose-Dependent Effect”. Moreover, the viability at 48 h, 10 µM in series [12] was 16.2%. Also, the TGI in [2] was no less than 70 nM. For the same compound, in series [3], the GI50 amounted to 40 nM. Further, in [13], the IC50 at 2 days is greater than 1000 nM. Further, in the series on DNA, the result was inactive.
With `CN(C)c1ccnc(CNCCSC2(c3ccc(C(F)(F)F)cc3)c3ccccc3C=Cc3ccccc32)c1`, in series [1], the IC50 was greater than 50000 nM. In addition, in series [4], the LC50 (50% net cell kill) was no less than 10000 nM. In series [2], the TGI worked out at 4390 nM. In [3], this compound yielded a GI50 of 610 nM.
Take `CN(C)c1ccnc(CNCCCSC(c2ccccc2)(c2ccccc2)c2ccccc2)c1`: in [1], the IC50 stood at 26100 nM. The TGI in [2] turned out to be 3190 nM. For the same compound, the GI50 in [3] amounted to 1550 nM.
Regarding `CN(C)c1ccnc(CNCCSC2c3ccccc3C=Cc3ccccc32)c1`, the IC50 in [1] was greater than 50000 nM.
Consider `CCN(CC)c1ccnc(CNCCc2cn(C(c3ccccc3)(c3ccccc3)c3ccccc3)cn2)c1`, for which the IC50 in series [1] is 15400 nM. In addition, the TGI in series [2] is no less than 3200 nM. Halving of growth in series [3] (GI50) required 1030 nM.
With `CCN(CC)c1ccnc(CNCCSC(c2ccccc2)(c2ccccc2)c2ccc(C)cc2)c1`, the IC50 in series [1] came to 27300 nM. For the same compound, in series [4], the LC50 (50% net cell kill) was no less than 5590 nM. The TGI in series [2] stood at 2850 nM. The compound further came in with a GI50 in series [3] of 1380 nM.
In the same order, the values of `Cc1ccc(C(SCCNCc2cc(N(C)C)ccn2)(c2ccccc2)c2ccccc2)cc1` are 9910 nM, no less than 4650 nM, 1570 nM and 370 nM.
